The source of these data is ChEMBL document CHEMBL1201862, “PubChem BioAssay data set” (2004).

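Exposure lasted 48 hours, with cells grown in 96-well plates and compounds tested at five concentrations. GI50 is the concentration that inhibits growth by half.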 Active and inactive are the calls of the source. Rule as the data show it: active = GI50 up to about 1.1 µM and inactive = higher. Bounds are passed on as bounds.

Test systems include M19-MEL; K562; OVCAR-5; SF-539; SK-MEL-5; U-251; UO-31; OVCAR-3; SF-268; A549; SK-MEL-2; HL-60; KM12; TK-10; A498; HOP-62; SNB-19.
Common to all, as to test: NCI tumour cell line growth inhibition, 48 h

With `N#Cc1ccc(OCCSCCCCCCCCCCSCCOc2ccc(C#N)cc2)cc1`, the GI50 with M19-MEL is > 100 µM (inactive); in the assay on K562 it was > 100 µM (inactive); in the assay with OVCAR-5 it was > 100 µM (inactive); in the assay on SF-539 it was > 100 µM (inactive); in the assay on SK-MEL-5 it was 3.03 µM (inactive); in the assay with U-251 it was > 100 µM (inactive). Besides, the GI50 in the assay with UO-31 is 0.402 µM (active); in the assay on OVCAR-3, > 100 µM (inactive); in the assay with SF-268, > 100 µM (inactive); in the assay on A549 it was > 100 µM (inactive); in the assay with SK-MEL-2, > 100 µM (inactive); in the assay with HL-60, > 100 µM (inactive). The GI50 in the assay with KM12, in the assay on TK-10, in the assay with A498 and in the assay on HOP-62 was > 100 µM (inactive) each time.

As for `O=C(CN(c1ccccc1)c1ccccc1)N1c2ccccc2C2C=CC=CC21` (centres undefined), the GI50 in the assay with M19-MEL is 21.5 µM (inactive); in the assay on K562 it was 14.3 µM (inactive); with OVCAR-5, 24 µM (inactive); with SF-539, 18.8 µM (inactive); in the assay with SK-MEL-5, 15.6 µM (inactive); in the assay on U-251, 21.3 µM (inactive). Moreover, the GI50 with UO-31 was 30.1 µM (inactive); in the assay on OVCAR-3, 17.4 µM (inactive); in the assay with SF-268 it was 26.5 µM (inactive); with A549, 23.8 µM (inactive); in the assay with SNB-19, 17.5 µM (inactive); in the assay on SK-MEL-2, 18.1 µM (inactive). Also, the GI50 is 7.23 µM (inactive) in the assay on HL-60; 27.3 µM (inactive) in the assay on KM12; 24.3 µM (inactive) in the assay on TK-10; 32.4 µM (inactive) in the assay on A498; 20.1 µM (inactive) in the assay with HOP-62.

On to `O=C1CC(c2ccc(Cl)cc2)=Nc2ccccc2N1`, for which the GI50 with M19-MEL was > 100 µM (inactive); in the assay on K562 it was 40 µM (inactive); in the assay on OVCAR-5, > 100 µM (inactive); with SF-539, 96.6 µM (inactive); in the assay with SK-MEL-5, > 100 µM (inactive); with U-251, 20.7 µM (inactive). The GI50 in the assay on UO-31 is 48 µM (inactive); in the assay with OVCAR-3, 84.9 µM (inactive); in the assay with SF-268 it was > 100 µM (inactive); in the assay on A549, > 100 µM (inactive); with SNB-19, 51.6 µM (inactive); with SK-MEL-2, > 100 µM (inactive). The GI50 was 19.3 µM (inactive) in the assay with HL-60; > 100 µM (inactive) with KM12; 43.3 µM (inactive) with TK-10; 79.6 µM (inactive) in the assay on A498; 40.6 µM (inactive) in the assay with HOP-62.

Turning to `N#CC(C(=O)CCC(=O)C(C#N)c1ccccc1)c1ccccc1` (centres undefined), the GI50 in the assay with M19-MEL, with K562, in the assay on OVCAR-5, with SF-539, in the assay on SK-MEL-5 and in the assay on U-251 was > 100 µM (inactive) in each case. Also, the GI50 in the assay with UO-31, in the assay on OVCAR-3, with SF-268, in the assay with A549, with SNB-19 and in the assay on SK-MEL-2 was > 100 µM (inactive) in each case. The GI50 with HL-60, in the assay on KM12, in the assay with TK-10, with A498 and in the assay on HOP-62 was > 100 µM (inactive) in each case.

For the compound `CCOc1ccccc1NC(=O)C(=O)CC(=O)c1c(C)[n+]([O-])c2ccccc2[n+]1[O-]`, the GI50 is 50.9 µM (inactive) with M19-MEL; > 100 µM (inactive) in the assay with K562; > 100 µM (inactive) in the assay on OVCAR-5; > 100 µM (inactive) in the assay on SF-539; 43.9 µM (inactive) with SK-MEL-5; > 100 µM (inactive) in the assay on U-251. Also, the GI50 is > 100 µM (inactive) in the assay with UO-31; 25.2 µM (inactive) in the assay on OVCAR-3; > 100 µM (inactive) in the assay with SF-268; > 100 µM (inactive) with A549; 69.2 µM (inactive) with SNB-19; > 100 µM (inactive) in the assay with SK-MEL-2. Further, the GI50 is > 100 µM (inactive) in the assay with HL-60; 83.9 µM (inactive) with KM12; > 100 µM (inactive) in the assay on TK-10; > 100 µM (inactive) with A498; > 100 µM (inactive) in the assay with HOP-62.

As to `CCOC(=O)C(C)(C)Oc1ccc2c(=O)cc(-c3ccccc3)oc2c1`, the GI50 is 20.7 µM (inactive) with M19-MEL; 13 µM (inactive) in the assay on K562; > 100 µM (inactive) with OVCAR-5; 20.2 µM (inactive) with SF-539; 14.8 µM (inactive) with SK-MEL-5; 18.2 µM (inactive) in the assay on U-251. Moreover, the GI50 with UO-31 is 48.6 µM (inactive); in the assay with OVCAR-3, 19.5 µM (inactive); in the assay with SF-268, 22.3 µM (inactive); with A549 it was 23.1 µM (inactive); in the assay on SNB-19, 18.8 µM (inactive); in the assay with SK-MEL-2, 16.9 µM (inactive). Also, the GI50 was 14.1 µM (inactive) with HL-60; 18.9 µM (inactive) with KM12; > 100 µM (inactive) in the assay with TK-10; > 100 µM (inactive) in the assay on A498; 18.5 µM (inactive) in the assay on HOP-62.

Turning to `CCOC(=O)CCC(NC(=O)c1ccc(/N=C/c2nc3cc(C(F)(F)F)ccc3nc2-c2ccccc2)cc1)C(=O)OCC` (centres undefined), the GI50 in the assay on M19-MEL is > 50 µM (inactive); in the assay on K562, > 50 µM (inactive); with OVCAR-5 it was > 50 µM (inactive); in the assay with SF-539, 11.4 µM (inactive); with SK-MEL-5 it was 25.1 µM (inactive); in the assay with U-251, 6.07 µM (inactive). Also, the GI50 in the assay on UO-31 is > 50 µM (inactive); in the assay on OVCAR-3, 46.6 µM (inactive); in the assay with SF-268, 8.34 µM (inactive); in the assay with A549 it was 25.1 µM (inactive); in the assay with SNB-19 it was 10.6 µM (inactive); in the assay with SK-MEL-2, 11.3 µM (inactive). The GI50 in the assay on HL-60 was 8.91 µM (inactive); in the assay with KM12 it was 18.3 µM (inactive); in the assay with TK-10, 12.1 µM (inactive); in the assay with A498 it was 23.4 µM (inactive); in the assay on HOP-62 it was 12.9 µM (inactive).

With `CN(C)CCNc1ccc2ncn3c4ccccc4c(=O)c1c23`, the GI50 in the assay with M19-MEL is 2.96 µM (inactive); in the assay with K562 it was > 100 µM (inactive); in the assay on OVCAR-5 it was 1.66 µM (inactive); in the assay with SF-539, 3.62 µM (inactive); in the assay on SK-MEL-5 it was 2.74 µM (inactive); in the assay with U-251 it was 3.02 µM (inactive). Moreover, the GI50 was 1.53 µM (inactive) with UO-31; 7.76 µM (inactive) with OVCAR-3; 1.91 µM (inactive) in the assay with SF-268; 1.82 µM (inactive) with A549; 7.96 µM (inactive) in the assay on SNB-19; 2.99 µM (inactive) with SK-MEL-2. The GI50 is 7.73 µM (inactive) with HL-60; 2.44 µM (inactive) in the assay with KM12; 2.93 µM (inactive) in the assay with TK-10; 6.93 µM (inactive) with A498; 4.46 µM (inactive) with HOP-62.

In the case of `NC(=O)c1c2c(cc3c(=O)c4ccccc4[nH]c13)CCCC2`, the GI50 was > 100 µM (inactive) in the assay on M19-MEL; > 65.2 µM (inactive) in the assay with K562; > 100 µM (inactive) in the assay with OVCAR-5; > 100 µM (inactive) in the assay with SF-539; > 100 µM (inactive) with SK-MEL-5; > 100 µM (inactive) in the assay on U-251. In addition, the GI50 was > 100 µM (inactive) in the assay with UO-31; > 100 µM (inactive) with OVCAR-3; > 100 µM (inactive) in the assay with SF-268; > 100 µM (inactive) with A549; > 71.4 µM (inactive) in the assay with SNB-19; > 65.9 µM (inactive) in the assay on SK-MEL-2. Moreover, the GI50 in the assay with HL-60, in the assay on KM12, in the assay on TK-10, in the assay on A498 and with HOP-62 was > 100 µM (inactive) each time.

On to `COC(=O)c1c/c(=N\NC(=O)CC(=O)Nc2ccccc2OC)c2ccccc2o1`, for which the GI50 is > 100 µM (inactive) with M19-MEL; 54.2 µM (inactive) with K562; > 100 µM (inactive) in the assay with OVCAR-5; > 100 µM (inactive) in the assay on SF-539; 91.8 µM (inactive) with SK-MEL-5; > 100 µM (inactive) with U-251. Also, the GI50 was > 100 µM (inactive) with UO-31; > 100 µM (inactive) in the assay with OVCAR-3; > 100 µM (inactive) in the assay on SF-268; 74.8 µM (inactive) in the assay on A549; > 100 µM (inactive) in the assay on SNB-19; > 100 µM (inactive) in the assay with SK-MEL-2. Besides, the GI50 in the assay on HL-60, in the assay with KM12, in the assay with TK-10, with A498 and with HOP-62 was > 100 µM (inactive) in each case.
